# Experimental data from patent publication US20240376126A1, “PRMT5 INHIBITOR AND THE USE THEREOF” (CYTOSINLAB THERAPEUTICS CO., LTD., priority 2022, published 2024).
# Like-named read-outs stand apart in the source and are kept apart here.
# Key:
# [1] = test system: HCT116 MTAP WT cells; test: Proliferation inhibition of HCT116 cells in vitro (CellTiter Glo, 6 days); assay type: cell-based; conditions: Homo sapiens, HCT-116, 144 h, read-out: Cell proliferation inhibition rate HCT116 MTAP WT IC50 (nm)
# From the text: (§1) Biological Test Example 2 Proliferation Inhibition of HCT116 and HCT116 MTAP-KO Cells In Vitro
# (§2) HCT116 cell line was purchased from the Chinese Academy of Sciences Cell Bank, and the MTAP gene was knocked out by CRISPR/Cas9 technology to obtain HCT116-MTAP-KO cell line.
# (§3) McCoy's 5A medium (Gibco, catalog No. 16600082), fetal bovine serum (Gibco, catalog No. 10099141C), penicillin-streptomycin double antibody (Gibco, catalog No. 15140122), pancreatic enzyme (Gibco, catalog No. 25200056), CellTiter Glo assay kit (Promega, catalog No. G7572), 384-well transparent flat-bottomed black walled cell culture plate (Corning, catalog No. 3764), ultra micro sampler (Tecan, catalog No. D300e), Multimode reader (Biotek, catalog No. SynergyHTX)
# (§4) • 1. Cell culture: HCT116 and HCT116-MTAP-KO cells were cultured in McCoy'5A medium+10% fetal bovine serum+1% penicillin-streptomycin double antibody; to ensure that they were always in the logarithmic growth phase and the cell viability greater than 95%. • 2. Compound concentration gradient preparation: The compound to be tested was added to a 384-well plate using an ultra micro sampler, starting from 30 μM (HCT116 cells) or 3 μM (HCT116-MTAP-KO cells), and diluted with DMSO at 3 times for a total of 9 concentrations and set up three duplicate wells. • 3. Treatment of cells with compounds: Trypsin-digested HCT116 or HCT116-MTAP-KO cell suspension was added to the 384-well plates spotted with the compounds to be tested at 40 μL per well, i.e., 100 cells per well, and the final concentration of DMSO was 0.4%. The cell culture plate was incubated at 37° C. in a 5% CO2 incubator for 6 days. • 4. Detection: 20 μL of CellTiter Glo reagent was added to each well of the cell culture plate and incubated at room temperature for 30 minutes. A multimode reader was used to detect the luminescence signal at […]. • 5. Data analysis:
# (§5) The data was fitted with GraphPad Prism 8.0 software using a four parameter inhibitor-reaction model to obtain the […] (half inhibitory concentration) of the test compounds.
# (§6) The first column represents cell proliferation inhibition rate HCT116 MTAP WT IC50 (nm), and the second column represents cell proliferation inhibition rate HCT116-MTAP null IC50 (nm): […]
# [2] = test system: HCT116-MTAP-KO (MTAP null) cells; test: Proliferation inhibition of HCT116 MTAP-KO cells in vitro (CellTiter Glo, 6 days); assay type: cell-based; conditions: read-out: Cell proliferation inhibition rate HCT116-MTAP null IC50 (nm)
# From the text: as §1, §2, §3, §4, §5, §6
Structure (SMILES),IC50 [1] [nM],"IC50 ([2]; HCT116-MTAP null, 144 h) [nM]",IC50 [2] [nM]
CC1OCc2c1c(N)nc1ccc(C(=O)N(Cc3cn4cc(C(F)(F)F)ccc4n3)C34CC(C3)C4)cc21 (centres unmarked) [Example 43],1000 to 10000,< 100,–
COCC(C)N(Cc1cn2cc(C(F)(F)F)ccc2n1)C(=O)c1ccc2nc(N)c3c(c2c1)COC3C (centres unmarked) [Example 44],1000 to 10000,< 100,–
COC1CC(N(Cc2cn3ccccc3n2)C(=O)c2cc3c(cc2F)nc(N)c2cnn(C)c23)C1 (centres unmarked) [Example 45],1000 to 10000,< 100,–
CCN(Cc1cn2ccccc2n1)C(=O)c1ccc2nc(N)c3c(c2c1)CO[C@H]3C [Example 47],1000 to 10000,< 100,–
C[C@H]1OCc2c1c(N)nc1ccc(C(=O)N(Cc3cn4cc(C(F)(F)F)ccc4n3)c3cnn(C)c3)cc21 [Example 48],1000 to 10000,1000 to 10000,–
C[C@@H]1OCc2c1c(N)nc1ccc(C(=O)N(Cc3cn4cc(C(F)(F)F)ccc4n3)c3cnn(C)c3)cc21 [Example 49],1000 to 10000,< 100,–
[2H]C([2H])([2H])N(Cc1cn2cc(C(F)(F)F)ccc2n1)C(=O)c1ccc2nc(N)c3c(c2c1)COC3C (centres unmarked) [Example 50],1000 to 10000,100 to 1000,< 100
CCN(Cc1cn2cc(C(F)(F)F)ccc2n1)C(=O)c1ccc2nc(N)c3c(c2c1)COC3C (centres unmarked) [Example 51],1000 to 10000,100 to 1000,–
CC(C)CN(Cc1cn2cc(C(F)(F)F)ccc2n1)C(=O)c1ccc2nc(N)c3c(c2c1)COC3C (centres unmarked) [Example 52],1000 to 10000,< 100,–
CC(C)CN(Cc1cn2ccccc2n1)C(=O)c1ccc2nc(N)c3c(c2c1)COC3C (centres unmarked) [Example 53],1000 to 10000,< 100,–
CC(C)CN(Cc1cn2ccccc2n1)C(=O)c1ccc2nc(N)c3c(c2c1)CO[C@@H]3C [Example 54],1000 to 10000,100 to 1000,–
CC(C)CN(Cc1cn2ccccc2n1)C(=O)c1ccc2nc(N)c3c(c2c1)CO[C@H]3C [Example 55],1000 to 10000,< 100,–
CC1OCc2c1c(N)nc1ccc(C(=O)N(Cc3cn4ccccc4n3)C34CC(C3)C4)cc21 (centres unmarked) [Example 56],1000 to 10000,100 to 1000,–
CC1OCc2c1c(N)nc1ccc(C(=O)N(Cc3cn4ccccc4n3)c3cnn(C)c3)cc21 (centres unmarked) [Example 57],1000 to 10000,100 to 1000,–
CC(C)CN(Cc1nc2ccccn2c1F)C(=O)c1cc2c(cc1F)nc(N)c1cnn(C)c12 [Example 58],100 to 1000,< 100,–
Cn1ncc2c(N)nc3cc(F)c(C(=O)N(Cc4cn5ccccc5n4)C45CC(F)(C4)C5)cc3c21 [Example 59],1000 to 10000,< 100,–
COCCN(C(=O)c1cc2c(cc1F)nc(N)c1cnn(C)c12)C(C)c1cn2ccccc2n1 (centres unmarked) [Example 60],1000 to 10000,< 100,–
Cn1ncc2c(N)nc3cc(F)c(C(=O)N(Cc4cn5ccccc5n4)C45CC(C#N)(C4)C5)cc3c21 [Example 61],1000 to 10000,< 100,–
Cn1ncc2c(N)nc3cc(F)c(C(=O)N(Cc4cn5ccccc5n4)C45CC(C(F)(F)F)(C4)C5)cc3c21 [Example 62],1000 to 10000,< 100,–
C[C@@H]1COC[C@H](c2cn3ccccc3n2)N1C(=O)c1ccc2nc(N)c3cnn(C)c3c2c1 [Example 63],1000 to 10000,< 100,–
CC1OCc2c1c(N)nc1ccc(C(=O)N3[C@H](C)COC[C@@H]3c3cn4ccccc4n3)cc21 (some centres unmarked) [Example 64],1000 to 10000,100 to 1000,–
CC1OCc2c1c(N)nc1ccc(C(=O)N(Cc3cn4ccccc4n3)C(C)C(F)(F)F)cc21 (centres unmarked) [Example 65],1000 to 10000,100 to 1000,–

Structure (SMILES),IC50 [1] [nM],"IC50 ([2]; HCT116-MTAP null, 144 h) [nM]",IC50 [2] [nM]
CC1OCc2c1c(N)nc1ccc(C(=O)N(Cc3cn4ccccc4n3)CC(F)F)cc21 (centres unmarked) [Example 66],1000 to 10000,100 to 1000,–
CC1OCc2c1c(N)nc1ccc(C(=O)N3C(C)COCC3c3cn4cc(C(F)(F)F)ccc4n3)cc21 (centres unmarked) [Example 67],1000 to 10000,100 to 1000,–
Cn1cc(N(Cc2cn3cc(C(F)(F)F)ccc3n2)C(=O)c2ccc3nc(N)c4c(c3c2)COC4)cn1 [Example 68],1000 to 10000,< 100,–
CCN(Cc1cn2ccccc2n1)C(=O)c1cc2c(cn1)nc(N)c1cnc(C)n12 [Example 69],1000 to 10000,100 to 1000,–
CC1OCc2c1c(N)nc1ccc(C(=O)N(Cc3nc4ccc(C(F)(F)F)cn4c3F)c3cnn(C)c3)cc21 (centres unmarked) [Example 71],1000 to 10000,< 100,–
C[C@H]1OCc2c1c(N)nc1ccc(C(=O)N(Cc3cn4c(C(F)(F)F)cccc4n3)c3cnn(C)c3)cc21 [Example 72],1000 to 10000,1000 to 10000,–
C[C@@H]1OCc2c1c(N)nc1ccc(C(=O)N(Cc3cn4c(C(F)(F)F)cccc4n3)c3cnn(C)c3)cc21 [Example 73],1000 to 10000,< 100,–
CC1OCc2c1c(N)nc1ccc(C(=O)N(Cc3cn4c(C(F)(F)F)cccc4n3)c3cnn(C)c3)cc21 (centres unmarked) [Example 74],1000 to 10000,100 to 1000,–
Cc1ccc2nc(CN(C(=O)c3ccc4nc(N)c5c(c4c3)COC5C)c3cnn(C)c3)cn2c1 (centres unmarked) [Example 75],1000 to 10000,< 100,–
CC1OCc2c1c(N)nc1ccc(C(=O)N(Cc3cn4cc(C(F)F)ccc4n3)c3cnn(C)c3)cc21 (centres unmarked) [Example 78],1000 to 10000,< 100,–
Cn1cc(N(Cc2cn3cc(C(F)(F)F)ccc3n2)C(=O)c2cc3c4c(c(N)nc3cc2F)COC4)cn1 [Example 80],1000 to 10000,< 100,–
Cn1cc(N(Cc2cn3ccccc3n2)C(=O)c2cc3c4c(c(N)nc3cc2F)COC4)cn1 [Example 82],1000 to 10000,< 100,–
Cn1cc(N(Cc2nc3ccccn3c2F)C(=O)c2cc3c4c(c(N)nc3cc2F)COC4)cn1 [Example 83],100 to 1000,< 100,–
Cn1cc(N(Cc2nc3ccc(C(F)(F)F)cn3c2F)C(=O)c2cc3c4c(c(N)nc3cc2F)COC4)cn1 [Example 84],1000 to 10000,< 100,–
CCN(Cc1cn2cc(C(F)(F)F)ccc2n1)C(=O)c1cc2c3c(c(N)nc2cc1F)COC3 [Example 85],1000 to 10000,< 100,–
CCN(Cc1cn2ccccc2n1)C(=O)c1cc2c3c(c(N)nc2cc1F)COC3 [Example 86],1000 to 10000,< 100,–
Cc1ccc2nc(CN(C(=O)c3cc4c5c(c(N)nc4cc3F)COC5)c3cnn(C)c3)cn2c1 [Example 87],1000 to 10000,< 100,–
Cn1ncc(N(Cc2cn3cc(C(F)(F)F)ccc3n2)C(=O)c2cc3c4c(c(N)nc3cc2F)COC4)n1 [Example 88],1000 to 10000,< 100,–
Cc1nn(C)cc1N(Cc1cn2cc(C(F)(F)F)ccc2n1)C(=O)c1ccc2nc(N)c3c(c2c1)COC3 [Example 89],1000 to 10000,< 100,–
Cc1nn(C)cc1N(Cc1cn2cc(C(F)(F)F)ccc2n1)C(=O)c1ccc2nc(N)c3c(c2c1)CO[C@H]3C [Example 90],100 to 1000,< 100,–
Cn1cc(N(Cc2nc3ccc(C(F)(F)F)cn3c2F)C(=O)c2ccc3nc(N)c4c(c3c2)COC4)cn1 [Example 91],1000 to 10000,< 100,–
Cn1cc(N(Cc2nc3ccccn3c2F)C(=O)c2ccc3nc(N)c4c(c3c2)COC4)cn1 [Example 92],1000 to 10000,< 100,–
